From ChEMBL document CHEMBL3400134, “Synthesis and biological evaluation of fluconazole analogs with triazole-modified scaffold as potent antifungal agents” (Bioorg Med Chem, 2015)
Values after ≈ are worked out from the molar mass of the structure shown.

Key:
[1] = tested on: Nakaseomyces glabratus; experiment: Antifungal activity against Candida glabrata IFRC 339 after 24 to 168 hrs by broth microdilution assay; assay type: functional
[2] = tested on: Aspergillus fumigatus; experiment: Antifungal activity against Aspergillus fumigatus ATCC 1028 after 24 to 168 hrs by broth microdilution assay; assay type: functional
[3] = tested on: Candida albicans; experiment: Antifungal activity against Candida albicans ATCC 18804 after 24 to 168 hrs by broth microdilution assay; assay type: functional
[4] = tested on: Candida albicans; experiment: Antifungal activity against Candida albicans PTCC 6027 after 24 to 168 hrs by broth microdilution assay; assay type: functional
[5] = tested on: Cryptococcus neoformans; experiment: Antifungal activity against Cryptococcus neoformans IFRC 192 after 24 to 168 hrs by broth microdilution assay; assay type: functional
[6] = Stability of the compound in PBS at 0.15 to 6 ug/ml at pH 5.8 to 8 at RT after 2 weeks by UV spectrophotometry; assay type: physicochemical; conditions: buffer, pH 5.8, 336 h
[7] = Stability of the compound in deuterated DMSO at RT after 2 weeks by 1H-NMR spectroscopy; assay type: physicochemical; conditions: 336 h
[8] = tested on: Candida albicans; experiment: Ratio of fluconazole MIC to compound MIC for Candida albicans ATCC 18804; assay type: functional
[9] = tested on: HepG2; experiment: Cytotoxicity against human HepG2 cells after 2 days by MTT assay; assay type: cell-based; conditions: HepG2, 48 h
[10] = tested on: Candida albicans; experiment: Ratio of fluconazole MIC to compound MIC for Candida albicans PTCC 6027; assay type: functional
[11] = tested on: Nakaseomyces glabratus; experiment: Ratio of fluconazole MIC to compound MIC for Candida glabrata IFRC 339; assay type: functional

Structure (SMILES)	MIC [1] [µg/mL]	MIC [2] [µg/mL]	MIC [3] [µg/mL]	MIC [4] [µg/mL]	MIC [5] [µg/mL]	Stability [6]	Stability [7]	Ratio [8]	IC50 [9] [µg/mL]	Ratio [10]	Ratio [11]
OC(CSc1nnc(-c2ccccc2)[nH]1)(Cn1cncn1)c1ccc(F)cc1F (centres undefined)	128 (≈ 309 µM)	> 128	0.5 (≈ 1.21 µM)	8 (≈ 19.3 µM)	> 128						
Oc1ccc(-c2nnc(SCC(O)(Cn3cncn3)c3ccc(F)cc3F)[nH]2)cc1 (centres undefined)	128 (≈ 297 µM)	> 128	> 128	> 128	> 128						
Cc1ccc(-c2nnc(SCC(O)(Cn3cncn3)c3ccc(F)cc3F)[nH]2)cc1 (centres undefined)	128 (≈ 299 µM)	> 128	2 (≈ 4.67 µM)	2 (≈ 4.67 µM)	> 128						
COc1ccc(-c2nnc(SCC(O)(Cn3cncn3)c3ccc(F)cc3F)[nH]2)cc1 (centres undefined)	4 (≈ 9 µM)	> 128	2 (≈ 4.5 µM)	4 (≈ 9 µM)	> 128						
OC(CSc1nnc(-c2ccc(F)cc2)[nH]1)(Cn1cncn1)c1ccc(F)cc1F (centres undefined)	4 (≈ 9.25 µM)	> 128	8 (≈ 18.5 µM)	4 (≈ 9.25 µM)	> 128						
OC(CSc1nnc(-c2ccc(Cl)cc2)[nH]1)(Cn1cncn1)c1ccc(F)cc1F (centres undefined)	128 (≈ 285 µM)	> 128	0.5 (≈ 1.11 µM)	1 (≈ 2.23 µM)	> 128						
OC(CSc1nnc(-c2cccc(Br)c2)[nH]1)(Cn1cncn1)c1ccc(F)cc1F (centres undefined)	128 (≈ 259 µM)	> 128	8 (≈ 16.2 µM)	8 (≈ 16.2 µM)	> 128						
OC(CSc1nnc(-c2ccc(Cl)cc2Cl)[nH]1)(Cn1cncn1)c1ccc(F)cc1F (centres undefined)	0.25 (≈ 0.517 µM)	> 128	0.5 (≈ 1.03 µM)	0.03 (≈ 0.0621 µM)	64 (≈ 132 µM)	Stable	Stable	8	> 250	4	4
OC(CSc1nnc(-c2ccncc2)[nH]1)(Cn1cncn1)c1ccc(F)cc1F (centres undefined)	128 (≈ 308 µM)	> 128	64 (≈ 154 µM)	64 (≈ 154 µM)	> 128						
OC(CSc1nnc(-c2ccccc2)[nH]1)(Cn1cncn1)c1ccc(Cl)cc1Cl (centres undefined)	128 (≈ 286 µM)	> 128	4 (≈ 8.94 µM)	1 (≈ 2.24 µM)	> 128						
Oc1ccc(-c2nnc(SCC(O)(Cn3cncn3)c3ccc(Cl)cc3Cl)[nH]2)cc1 (centres undefined)	128 (≈ 276 µM)	> 128	16 (≈ 34.5 µM)	16 (≈ 34.5 µM)	128 (≈ 276 µM)						
Cc1ccc(-c2nnc(SCC(O)(Cn3cncn3)c3ccc(Cl)cc3Cl)[nH]2)cc1 (centres undefined)	128 (≈ 277 µM)	> 128	1 (≈ 2.17 µM)	0.125 (≈ 0.271 µM)	128 (≈ 277 µM)						
COc1ccc(-c2nnc(SCC(O)(Cn3cncn3)c3ccc(Cl)cc3Cl)[nH]2)cc1 (centres undefined)	128 (≈ 268 µM)	> 128	32 (≈ 67 µM)	> 128	> 128						
OC(CSc1nnc(-c2ccc(F)cc2)[nH]1)(Cn1cncn1)c1ccc(Cl)cc1Cl (centres undefined)	128 (≈ 275 µM)	> 128	0.5 (≈ 1.07 µM)	0.125 (≈ 0.269 µM)	> 128						
OC(CSc1nnc(-c2ccc(Cl)cc2)[nH]1)(Cn1cncn1)c1ccc(Cl)cc1Cl (centres undefined)	128 (≈ 266 µM)	> 128	0.5 (≈ 1.04 µM)	0.125 (≈ 0.259 µM)	> 128						
OC(CSc1nnc(-c2cccc(Br)c2)[nH]1)(Cn1cncn1)c1ccc(Cl)cc1Cl (centres undefined)	128 (≈ 243 µM)	> 128	0.25 (≈ 0.475 µM)	0.06 (≈ 0.114 µM)	4 (≈ 7.6 µM)			8			
OC(CSc1nnc(-c2ccc(Cl)cc2Cl)[nH]1)(Cn1cncn1)c1ccc(Cl)cc1Cl (centres undefined)	0.25 (≈ 0.484 µM)	> 128	0.5 (≈ 0.969 µM)	< 0.01	32 (≈ 62 µM)			25	97.1 (≈ 188 µM)	4	4
OC(CSc1nnc(-c2ccncc2)[nH]1)(Cn1cncn1)c1ccc(Cl)cc1Cl (centres undefined)	128 (≈ 285 µM)	> 128	8 (≈ 17.8 µM)	4 (≈ 8.92 µM)	> 128						
Nn1c(SCC(O)(Cn2cncn2)c2ccc(F)cc2F)nnc1-c1ccc(Cl)cc1Cl (centres undefined)				16 (≈ 32.1 µM)							
Nn1c(SCC(O)(Cn2cncn2)c2ccc(Cl)cc2Cl)nnc1-c1ccc(Cl)cc1Cl (centres undefined)				8 (≈ 15.1 µM)							
OC(Cn1cncn1)(Cn1cncn1)c1ccc(F)cc1F [FLUCONAZOLE]	64 (≈ 209 µM)	8 (≈ 26.1 µM)	2 (≈ 6.53 µM)	0.25 (≈ 0.816 µM)	4 (≈ 13.1 µM)				> 250		
